Measured values reported in patent US20160331662A1, “Compositions that Inhibit and Prevent the Formation of Dental Caries and Methods of Using the Same” (priority 2014, published 2016).

Key:
[1] = system: adhesion of AgI/II of S. mutans to iSRCR1; assay: Adherence/inhibition SPR: AgI/II fragments on immobilized iSRCR1; type: binding
Description: (§1) Carbohydrates Galβ1-3-GalNac and Mannose (identified from glycan profile analysis) at different concentrations (0.010, 0.050, 0.1, 0.5 and 1 mM) were incubated with 2 μM of each FL, A3VP1 and C123 of AgI/II and SspB and the interaction with immobilized iSRCR1 and iSRCR123 with running buffer containing 20 mM HEPES, 150 mM NaCl and 2.5 mM CaCl2, pH 7.4 at 25° C. and with flow rate of 20 μl/min was analyzed. Direct adherence of these carbohydrates alone served as the control and all calculations were carried out using the BIAevaluation software. Using the same protocol above at varying concentrations the effect of SRCRP2 peptide on the adherence inhibition was assessed.

[2] = system: GbpC (Glucan binding protein C) adherence to immobilized salivary agglutinin; assay: SPR inhibition of SAG adherence of FL surface protein (Example 2); parameters: species or system S. mutans; settings: 2 mM
Description: (§2) Inhibition of SAG adherence to AgI/II, SspB, Pas, along with glucan binding protein C (GbpC) and collagen binding protein (rcnM) by Galβ1-3GalNac (core-1) was determined as is described in Example 1 and as described below.
(§3) Recombinant full length (FL) constructs of surface proteins (homologs of AgI/II) AgI/II, SspB, Pas, along with GbpC (Glucan binding protein C) and rcnM (collagen binding protein) were incubated with various concentrations (0.010 mM to 2 mM) of Galβ1-3GalNac at room temperature and their binding interaction with immobilized salivary agglutinin on a CM5 sensor chip was determined.

[3] = target: T1, iSRCR123 (Homo sapiens, UniProt Q9UGM3); assay: SPR binding of analytes to immobilized iSRCR123 (CM5 chip, 1:1 Langmuir); settings: substance alone over CM5 chip
T1 construct: multiple SRCR domains have better adherence capability compared to that of a single SRCR domain; made in house; host or cells: Drosophila expression system
T1 sequence (Q9UGM3 102-463 limits assumed): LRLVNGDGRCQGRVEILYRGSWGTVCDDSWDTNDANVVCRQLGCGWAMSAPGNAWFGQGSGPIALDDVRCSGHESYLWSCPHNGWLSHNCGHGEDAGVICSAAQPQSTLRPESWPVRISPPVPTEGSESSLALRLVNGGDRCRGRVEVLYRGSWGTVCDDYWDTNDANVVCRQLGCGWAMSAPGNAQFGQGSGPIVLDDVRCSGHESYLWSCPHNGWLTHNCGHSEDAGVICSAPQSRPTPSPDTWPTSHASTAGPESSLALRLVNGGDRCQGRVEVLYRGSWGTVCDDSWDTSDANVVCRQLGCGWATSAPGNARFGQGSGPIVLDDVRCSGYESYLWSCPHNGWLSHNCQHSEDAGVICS
Description: (§4) Real time binding analyses of the SRCR domains with AgI/II fragments were carried out using the BIAcore 2000 system. […] Self association of iSRCR1 or iSRCR123 (at 2 μM) were also determined in a similar manner as described above. Finally to determine the effect of calcium SPR analysis was carried out by dialyzing the analytes and ligands in binding buffer devoid of CaCl2.
(§5) In addition, the SRCR holding two distinct surfaces compounded the elucidation of individual kinetics, and presently there are no modeling protocols available to determine the individual affinities for such a system, therefore for simplicity we have utilized a single site 1:1 Langmuir model. All experiments were carried out in triplicates and the kinetics of the association (KA) and dissociation (KD) rate constants were deduced using the 1:1 Langmuir Kinetic model on the BIA-Evaluation software. The concentration (C in μM) of analyte (FL^AgI/II or FL^SspB at 2 μM) that adhered to the immobilized ligand (iSRCR1, iSRCR123) within the flow cell was calculated using the formula C=(RU/MW)×(1/V), where RU is resonance unit (1 RU=1 pg of bound protein), MW is molecular weight of analyte and V is volume of flow cell (1.2×10^−10 L).

[4] = system: rcnM (collagen binding protein) adherence to immobilized salivary agglutinin; assay: SPR inhibition of SAG adherence of FL surface protein (Example 2); settings: 2 mM
Description: as §2, §3

[5] = system: adhesion of SspB of S. gordonii to iSRCR1; type: binding; settings: lower concentrations 0.010 mM-0.500 mM
Description: as §1

[6] = target: T2, adhesion of SspB of S. gordonii to iSRCR1 (Streptococcus gordonii, UniProt A8AUS1); type: binding; settings: 1.0 mM; 2 μM protein
T2 construct: made in house; host or cells: pET23d vector
Description: as §1

[7] = target: T3, Pas adherence to immobilized salivary agglutinin (Streptococcus intermedius, UniProt Q9KW51); assay: SPR inhibition of SAG adherence of FL surface protein (Example 2); type: binding, S. intermedius; settings: 2 mM
T3 construct: Recombinant full length (FL) constructs of surface proteins (homologs of AgI/II) AgI/II, SspB, Pas; made in house
T3 sequence (Q9KW51 39-1310): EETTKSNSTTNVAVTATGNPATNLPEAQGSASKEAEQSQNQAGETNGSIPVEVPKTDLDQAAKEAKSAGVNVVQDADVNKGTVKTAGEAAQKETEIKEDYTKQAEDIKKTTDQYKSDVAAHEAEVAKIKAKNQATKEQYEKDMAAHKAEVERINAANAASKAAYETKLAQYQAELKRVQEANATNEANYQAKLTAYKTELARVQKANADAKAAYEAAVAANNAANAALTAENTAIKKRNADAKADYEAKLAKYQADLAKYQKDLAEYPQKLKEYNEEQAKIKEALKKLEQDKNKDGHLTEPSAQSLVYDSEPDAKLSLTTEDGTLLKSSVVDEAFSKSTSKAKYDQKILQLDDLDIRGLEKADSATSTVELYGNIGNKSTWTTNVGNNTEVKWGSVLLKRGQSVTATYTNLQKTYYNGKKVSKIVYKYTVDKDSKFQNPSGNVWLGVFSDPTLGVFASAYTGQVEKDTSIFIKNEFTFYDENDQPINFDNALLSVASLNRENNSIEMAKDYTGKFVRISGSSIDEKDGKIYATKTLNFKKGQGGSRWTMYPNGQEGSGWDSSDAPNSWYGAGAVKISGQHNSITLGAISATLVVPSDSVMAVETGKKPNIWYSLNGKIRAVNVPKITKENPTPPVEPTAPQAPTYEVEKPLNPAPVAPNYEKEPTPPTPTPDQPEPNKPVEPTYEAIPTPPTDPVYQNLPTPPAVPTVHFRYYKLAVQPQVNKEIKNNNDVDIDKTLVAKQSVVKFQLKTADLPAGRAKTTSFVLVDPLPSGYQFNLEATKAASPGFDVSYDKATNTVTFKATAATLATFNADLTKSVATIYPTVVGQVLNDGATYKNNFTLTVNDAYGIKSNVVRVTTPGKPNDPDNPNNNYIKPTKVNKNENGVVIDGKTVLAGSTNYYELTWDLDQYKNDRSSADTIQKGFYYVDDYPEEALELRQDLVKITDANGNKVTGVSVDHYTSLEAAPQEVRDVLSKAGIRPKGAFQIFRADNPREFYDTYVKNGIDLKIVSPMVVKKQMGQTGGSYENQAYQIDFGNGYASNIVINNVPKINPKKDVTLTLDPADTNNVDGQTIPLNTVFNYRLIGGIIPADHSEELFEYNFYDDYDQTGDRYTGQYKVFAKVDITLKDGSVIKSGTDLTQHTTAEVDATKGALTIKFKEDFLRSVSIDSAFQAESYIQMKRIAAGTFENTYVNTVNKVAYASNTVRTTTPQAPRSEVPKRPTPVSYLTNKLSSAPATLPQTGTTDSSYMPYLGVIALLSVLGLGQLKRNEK
Description: as §2, §3

[8] = target: T4, SspB adherence to immobilized salivary agglutinin (Streptococcus gordonii, UniProt A8AUS1); assay: as above; type: binding, S. gordonii; settings: 2 mM
T4 construct: (39-1433) (NotI) Reverse; made in house; host or cells: pET23d vector
T4 sequence (A8AUS1 39-1433): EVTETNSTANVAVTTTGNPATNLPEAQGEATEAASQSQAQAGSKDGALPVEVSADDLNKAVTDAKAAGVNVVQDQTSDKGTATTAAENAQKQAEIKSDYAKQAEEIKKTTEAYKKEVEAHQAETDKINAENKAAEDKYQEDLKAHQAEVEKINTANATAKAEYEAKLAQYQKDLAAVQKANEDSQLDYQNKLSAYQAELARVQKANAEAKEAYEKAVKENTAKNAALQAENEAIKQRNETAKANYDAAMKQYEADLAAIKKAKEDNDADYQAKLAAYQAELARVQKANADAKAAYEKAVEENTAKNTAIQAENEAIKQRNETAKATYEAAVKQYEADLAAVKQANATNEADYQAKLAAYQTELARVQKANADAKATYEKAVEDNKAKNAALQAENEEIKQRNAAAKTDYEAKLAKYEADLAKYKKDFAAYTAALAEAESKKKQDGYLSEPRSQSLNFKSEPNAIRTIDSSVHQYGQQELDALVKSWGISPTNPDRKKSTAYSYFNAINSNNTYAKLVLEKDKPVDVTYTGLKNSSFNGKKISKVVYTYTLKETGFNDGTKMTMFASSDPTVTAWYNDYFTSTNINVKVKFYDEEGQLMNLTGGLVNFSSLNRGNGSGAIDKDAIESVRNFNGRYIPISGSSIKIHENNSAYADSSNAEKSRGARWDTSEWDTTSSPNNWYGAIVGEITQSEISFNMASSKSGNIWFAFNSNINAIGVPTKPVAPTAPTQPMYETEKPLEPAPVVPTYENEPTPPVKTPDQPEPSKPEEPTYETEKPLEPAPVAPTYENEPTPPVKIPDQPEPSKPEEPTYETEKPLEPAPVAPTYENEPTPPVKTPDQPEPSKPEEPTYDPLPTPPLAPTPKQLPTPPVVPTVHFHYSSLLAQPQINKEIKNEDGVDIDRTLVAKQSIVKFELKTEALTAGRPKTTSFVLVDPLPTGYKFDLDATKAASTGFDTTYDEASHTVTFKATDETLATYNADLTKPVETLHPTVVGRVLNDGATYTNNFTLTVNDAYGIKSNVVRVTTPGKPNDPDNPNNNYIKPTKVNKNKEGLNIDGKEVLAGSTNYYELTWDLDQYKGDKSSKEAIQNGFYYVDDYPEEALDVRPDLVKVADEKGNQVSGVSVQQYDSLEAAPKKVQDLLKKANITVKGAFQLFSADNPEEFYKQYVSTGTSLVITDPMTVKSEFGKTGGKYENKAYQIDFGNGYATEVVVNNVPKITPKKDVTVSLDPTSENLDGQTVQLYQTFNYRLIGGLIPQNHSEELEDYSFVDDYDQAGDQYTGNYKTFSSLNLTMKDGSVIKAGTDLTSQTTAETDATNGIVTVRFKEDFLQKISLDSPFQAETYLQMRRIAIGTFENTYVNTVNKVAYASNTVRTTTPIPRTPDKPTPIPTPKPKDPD
Description: as §2, §3

[9] = target: T5, AgI/II adherence to immobilized salivary agglutinin (Streptococcus mutans serotype c, UniProt P23504); assay: as above; type: binding, S. mutans; settings: 2 mM
T5 construct: Recombinant full length (FL) constructs of surface proteins (homologs of AgI/II) AgI/II, SspB, Pas; made in house
T5 sequence (P23504 39-1562): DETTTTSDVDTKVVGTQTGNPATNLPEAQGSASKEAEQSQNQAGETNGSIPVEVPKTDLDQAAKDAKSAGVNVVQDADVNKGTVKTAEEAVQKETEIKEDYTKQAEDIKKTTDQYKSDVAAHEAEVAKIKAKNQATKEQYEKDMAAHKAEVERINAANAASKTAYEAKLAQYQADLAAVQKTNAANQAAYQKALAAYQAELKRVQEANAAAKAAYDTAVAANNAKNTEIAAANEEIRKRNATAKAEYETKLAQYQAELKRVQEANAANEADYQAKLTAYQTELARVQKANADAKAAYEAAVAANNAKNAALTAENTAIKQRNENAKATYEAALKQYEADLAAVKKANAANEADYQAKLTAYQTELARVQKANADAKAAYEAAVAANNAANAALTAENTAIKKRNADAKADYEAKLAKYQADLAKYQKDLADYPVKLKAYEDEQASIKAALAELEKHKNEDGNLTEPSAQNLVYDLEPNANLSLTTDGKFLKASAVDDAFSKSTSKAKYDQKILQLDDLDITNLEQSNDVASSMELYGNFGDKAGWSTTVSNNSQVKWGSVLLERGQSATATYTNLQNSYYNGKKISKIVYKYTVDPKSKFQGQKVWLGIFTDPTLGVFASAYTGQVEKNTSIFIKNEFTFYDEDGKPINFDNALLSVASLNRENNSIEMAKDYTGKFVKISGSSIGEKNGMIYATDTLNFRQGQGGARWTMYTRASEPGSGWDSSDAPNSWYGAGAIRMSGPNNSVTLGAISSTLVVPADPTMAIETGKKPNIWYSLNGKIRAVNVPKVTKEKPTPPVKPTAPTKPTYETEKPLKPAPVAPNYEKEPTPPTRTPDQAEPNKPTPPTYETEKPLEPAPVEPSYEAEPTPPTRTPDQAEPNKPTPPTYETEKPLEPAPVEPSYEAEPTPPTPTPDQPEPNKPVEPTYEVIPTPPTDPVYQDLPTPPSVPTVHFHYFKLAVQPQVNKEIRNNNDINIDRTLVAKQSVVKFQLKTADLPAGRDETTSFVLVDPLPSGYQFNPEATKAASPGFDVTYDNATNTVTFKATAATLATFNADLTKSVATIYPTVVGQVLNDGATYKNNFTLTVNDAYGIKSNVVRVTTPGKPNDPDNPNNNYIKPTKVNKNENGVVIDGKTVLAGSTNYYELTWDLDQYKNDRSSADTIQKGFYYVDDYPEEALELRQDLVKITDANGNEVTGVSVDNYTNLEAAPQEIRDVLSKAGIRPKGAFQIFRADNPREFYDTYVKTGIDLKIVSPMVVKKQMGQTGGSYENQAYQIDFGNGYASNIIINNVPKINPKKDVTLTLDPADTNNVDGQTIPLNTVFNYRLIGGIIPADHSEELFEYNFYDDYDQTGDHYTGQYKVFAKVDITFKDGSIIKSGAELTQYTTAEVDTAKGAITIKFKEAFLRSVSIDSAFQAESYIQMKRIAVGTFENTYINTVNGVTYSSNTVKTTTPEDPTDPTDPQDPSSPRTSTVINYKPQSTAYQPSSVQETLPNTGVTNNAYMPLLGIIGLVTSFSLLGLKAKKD
Description: as §2, §3

[10] = target: T6, SAG (Homo sapiens, UniProt Q9UGM3); assay: SPR binding of analytes to immobilized SAG; settings: 2 mM, control experiment
T6 construct: from tissue; host or cells: saliva (purified SAG, gift)
Description: as §4, §5

[11] = target: T7, iSRCR1 (Homo sapiens, UniProt Q9UGM3); assay: SPR binding of analytes to immobilized iSRCR1 (CM5 chip, 1:1 Langmuir); settings: substance alone over CM5 chip
T7 construct: strongly proves that a single SRCR domain contains the adherence sites for AgI/II and SspB; made in house; host or cells: Drosophila expression system
T7 sequence (Q9UGM3 102-202 limits assumed): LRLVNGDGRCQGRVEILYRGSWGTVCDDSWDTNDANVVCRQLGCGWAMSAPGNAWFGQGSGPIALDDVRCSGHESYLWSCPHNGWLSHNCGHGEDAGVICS
Description: as §4, §5

[12] = system: adhesion of AgI/II of S. mutans to iSRCR123; assay: Adherence/inhibition SPR: AgI/II fragments on immobilized iSRCR123; type: binding
Description: as §1

[13] = system: adhesion of SspB of S. gordonii to iSRCR123; assay: Adherence/inhibition SPR: SspB fragments on immobilized iSRCR123; type: binding
Description: as §1

[14] = lower concentrations 0.010 mM-0.500 mM

Compound: CC(=O)N[C@H]1C(O)O[C@H](CO)[C@H](O)[C@@H]1O[C@@H]1O[C@H](CO)[C@H](O)[C@H](O)[C@H]1O (stereo partly drawn) [Galβ1-3-GalNac]
- inhibition of adhesion of A3VP1^AgI/II to iSRCR1 ([1]; 1.0 mM, 2 μM protein): 79%
- inhibition of adhesion of C123^AgI/II to iSRCR1 ([1]; 1.0 mM, 2 μM protein): 73%
- inhibition of adhesion of FL^AgI/II to iSRCR1 ([1]; 1.0 mM, 2 μM protein): 85%
- effect on adhesion of all AgI/II fragments with iSRCR1 (in words) [1, 14]: enhanced the adhesion
- inhibition of SAG adherence of GBPC [2]: 72%
- direct binding to immobilized iSRCR123 (in words) [3]: did not have any interactions
- inhibition of SAG adherence of rcnM [4]: 69%
- effect on adhesion of all SspB fragments with iSRCR1 (in words) [5]: enhanced the adhesion
- inhibition of adhesion of A3VP1^SspB to iSRCR1 [6]: 61%
- inhibition of adhesion of C123^SspB to iSRCR1 [6]: 32%
- inhibition of adhesion of FL^SspB to iSRCR1 [6]: 64%
- inhibition of SAG adherence of Pas [7]: 28%
- inhibition of SAG adherence of SspB [8]: 65%
- inhibition of SAG adherence of AgI/II [9]: 94%
- direct adherence to SAG (in words) [10]: did not show direct adherence
- direct binding to immobilized iSRCR1 (in words) [11]: did not have any interactions
- inhibition of adhesion of A3VP1^AgI/II to iSRCR123 ([12]; 1.0 mM, 2 μM protein): 75%
- inhibition of adhesion of C123^AgI/II to iSRCR123 ([12]; 1.0 mM, 2 μM protein): 47%
- inhibition of adhesion of FL^AgI/II to iSRCR123 ([12]; 1.0 mM, 2 μM protein): 73%
- effect on adhesion of all AgI/II fragments with iSRCR123 (in words) [12, 14]: enhanced the adhesion
- inhibition of adhesion of A3VP1^SspB to iSRCR123 ([13]; 1.0 mM, 2 μM protein): 60%
- inhibition of adhesion of C123^SspB to iSRCR123 ([13]; 1.0 mM, 2 μM protein): 40%
- inhibition of adhesion of FL^SspB to iSRCR123 ([13]; 1.0 mM, 2 μM protein): 37%
- effect on adhesion of all SspB fragments with iSRCR123 (in words) [13, 14]: enhanced the adhesion
